# Read-outs that look alike come from different tables or passages of the source.
# Legend:
# CDK2/CycE = target: T1, CDK2/CycE (Homo sapiens, UniProt P24941); assay: CDK2/CycE high ATP kinase assay (Method 2b, TR-FRET); format: biochemical; details: 2 mM ATP
# T1 construct: GST; purchased ProQinase GmbH (Freiburg, Germany); host or cells: insect cells (Sf9)
# Procedure: 2b. CDK2/CycE High ATP Kinase Assay:
# CDK2/CycE-Inhibitory Activity of Compounds of the Present Invention at 2 mM Adenosine-Tri-Phosphate (ATP) was Quantified Employing the CDK2/CycE TR-FRET (TR-FRET=Time Resolved Fluorescence Energy Transfer) Assay as Described in the Following Paragraphs.
# Recombinant fusion proteins of GST and human CDK2 and of GST and human CycE, expressed in insect cells (Sf9) and purified by Glutathion-Sepharose affinity chromatography, were purchase from ProQinase GmbH (Freiburg, Germany). As substrate for the kinase reaction biotinylated peptide biotin-Ttds-YISPLKSPYKISEG (C-terminus in amid form) was used which can be purchased e.g. form the company JERINI peptide technologies (Berlin, Germany).
# For the assay 50 nl of a 100 fold concentrated solution of the test compound in DMSO was pipetted into a black low volume 384 well microtiter plate (Greiner Bio-One, Frickenhausen, Germany), 2 yl of a solution of CDK2/CycE in aqueous assay buffer [50 mM Tris/HCl pH 8.0, 10 mM MgCl2, 1.0 mM dithiothreitol, 0.1 mM sodium ortho-vanadate, 0.01% (v/v) Nonidet-P40 (Sigma)] were added and the mixture was incubated for 15 min at 22° C. to allow pre-binding of the test compounds to the enzyme before the start of the kinase reaction. […] The concentration of CDK2/CycE was adjusted depending of the activity of the enzyme lot and was chosen appropriate to have the assay in the linear range, typical concentrations were in the range of 15 ng/ml. The reaction was stopped by the addition of 5 yl of a solution of TR-FRET detection reagents (0.2 μM streptavidine-XL665 [Cisbio Bioassays, Codolet, France] and 1 nM anti-RB(pSer807/pSer811)-antibody from BD Pharmingen [#558389] and 1.2 nM LANCE EU-W1024 labeled anti-mouse IgG antibody [Perkin-Elmer, product no. AD0077, as an alternative a Terbium-cryptate-labeled anti-mouse IgG antibody from Cisbio Bioassays can be used]) in an aqueous EDTA-solution (100 mM EDTA, 0.2% (w/v) bovine serum albumin in 100 mM HEPES/NaOH pH 7.0).
# The resulting mixture was incubated 1 h at 22° C. to allow the formation of complex between the phosphorylated biotinylated peptide and the detection reagents. Subsequently the amount of phosphorylated substrate was evaluated by measurement of the resonance energy transfer from the Eu-chelate to the streptavidine-XL. Therefore, the fluorescence emissions at 620 nm and 665 nm after excitation at 350 nm were measured in a TR-FRET reader, e.g. a Rubystar (BMG Labtechnologies, Offenburg, Germany) or a Viewlux (Perkin-Elmer). The ratio of the emissions at 665 nm and at […] was taken as the measure for the amount of phosphorylated substrate. The data were normalised (enzyme reaction without inhibitor=0% inhibition, all other assay components but no enzyme=100% inhibition).
# HeLa cells = assay: Proliferation assay HeLa (Method 3); format: cell-based, human; details: 4 days, crystal violet, read-out: Inhibition of HeLa cell proliferation IC50
# Procedure: (§1) Cultivated tumour cells (HeLa, human cervical tumour cells, ATCC CCL-2; NCI-H460, human non-small cell lung carcinoma cells, ATCC HTB-177; A2780, human ovarian carcinoma cells, ECACC #93112519; DU 145, hormone-independent human prostate carcinoma cells, ATCC HTB-81; HeLa-MaTu-ADR, multidrug-resistant human cervical carcinoma cells, EPO-GmbH Berlin; Caco-2, human colorectal carcinoma cells, ATCC HTB-37; B16F10, mouse melanoma cells, ATCC CRL-6475) were plated at a density of 5,000 cells/well (DU145, HeLa-MaTu-ADR), 3,000 cells/well (NCI-H460, HeLa), 2,500 cells/well (A2780), 1,500 cells/well (Caco-2), or 1,000 cells/well (B16F10) in a 96-well multititer plate in 200 μL of their respective growth medium supplemented 10% fetal calf serum. After 24 hours, the cells of one plate (zero-point plate) were stained with crystal violet (see below), while the medium of the other plates was replaced by fresh culture medium (200 μl), to which the test substances were added in various concentrations (0 μM, as well as in the range of 0.001-10 μM; the final concentration of the solvent dimethyl sulfoxide was 0.5%). The cells were incubated for 4 days in the presence of test substances. Cell proliferation was determined by staining the cells with crystal violet: the cells were fixed by adding 20 μl/measuring point of an 11% glutaric aldehyde solution for 15 minutes at room temperature. After three washing cycles of the fixed cells with water, the plates were dried at room temperature. The cells were stained by adding 100 μl/measuring point of a 0.1% crystal violet solution (pH 3.0). After three washing cycles of the stained cells with water, the plates were dried at room temperature. The dye was dissolved by adding 100 μl/measuring point of a 10% acetic acid solution. The extinction was determined by photometry at a wavelength of 595 nm. The change of cell number, in percent, was calculated by normalization of the measured values to the extinction values of the zero-point plate (=0%) and the extinction of the untreated (0 μm) cells (=100%). The IC50 values (inhibitory concentration at 50% of maximal effect) were determined by means of a 4 parameter fit.
# Caco-2 cells = assay: Proliferation assay Caco-2 (Method 3); format: cell-based, human; details: Caco-2, 4 days, crystal violet, read-out: Inhibition of Caco-2 cell proliferation IC50
# Procedure: as §1
# A2780 cells = assay: Proliferation assay A2780 (Method 3); format: cell-based, human; details: A2780, 4 days, crystal violet, read-out: Inhibition of A2780 cell proliferation IC50
# Procedure: as §1
# MOLM-13 cells = assay: Proliferation assay MOLM-13 (Method 3); format: cell-based, human; details: Homo sapiens, MOLM-13, 72 h, MOLM-13, 72-hour exposure, Cell Titre-Glo; read-out: Inhibition of MOLM-13 cell proliferation IC50
# Procedure: Non-adherent MOLM-13 human acute myeloid leukemia cells (DSMZ ACC 554) were seeded at a density of 5,000 cells/well in a 96-well multititer plate in 100 μL of growth medium supplemented 10% fetal calf serum. After 24 hours, cell viability of one plate (zero-point plate) was determined with the Cell Titre-Glo Luminescent Cell Viability Assay (Promega), while 50 μL of test compound containing medium was added to the wells of the other plates (final concentrations in the range of 0.001-10 μM and DMSO controls; the final concentration of the solvent dimethyl sulfoxide was 0.5%). Cell viability was assessed after 72-hour exposure with the Cell Titre-Glo Luminescent Cell Viability Assay (Promega). IC50 values (inhibitory concentration at 50% of maximal effect) were determined by means of a 4 parameter fit on measurement data which were normalized to vehicle (DMSO) treated cells (=100%) and measurement readings taken immediately before compound exposure (=0%).
IC50 (CDK2/CycE) [µM],"IC50 (HeLa cells; Homo sapiens, 96 h) [µM]",IC50 (Caco-2 cells) [µM],IC50 (A2780 cells) [µM],IC50 (MOLM-13 cells) [µM],IC50 (HeLa cells) [µM],"IC50 (Caco-2 cells; Homo sapiens, Caco-2, 96 h) [µM]","IC50 (A2780 cells; Homo sapiens, A2780, 96 h) [µM]",Compound
1.54,0.101,,,0.03,,0.152,0.034,"CS(=N)(=O)Cc1cc(Nc2ncc(F)c(-c3ccc(F)c4ccoc34)n2)cc(S(F)(F)(F)(F)F)c1 (racemic) [Example 18, (rac)-5-Fluoro-4-(4-fluoro-1-benzofuran-7-yl)-N-{3-[(S-methylsulfonimidoyl)methyl]-5-(pentafluoro-λ^6-sulfanyl)phenyl}pyrimidin-2-amine]"
1.46,0.099,,,0.057,,0.111,0.098,"CS(=O)(Cc1cc(Nc2ncc(F)c(-c3ccc(F)c4ccoc34)n2)cc(S(F)(F)(F)(F)F)c1)=NC#N (racemic) [Example 17, (rac)-{[3-{[5-fluoro-4-(4-fluoro-1-benzofuran-7-yl)pyrimidin-2-yl]amino}-5-(pentafluoro-λ^6-sulfanyl)benzyl](methyl)oxido-λ^6-sulfanylidene}cyanamide]"
1.2,0.04,,,,,0.04,0.034,"Cc1cc(CS(C)(=O)=NC#N)cc(Nc2ncc(F)c(-c3ccc(F)c4ccoc34)n2)c1 (racemic) [Example 13, (rac)-[(3-{[5-Fluoro-4-(4-fluoro-1-benzofuran-7-yl)pyrimidin-2-yl]amino}-5-methylbenzyl)-(methyl)oxido-λ^6-sulfanylidene]cyanamide]"
1.25,,0.057,0.035,,0.03,,,"CS(=N)(=O)Cc1cc(F)cc(Nc2ncc(F)c(-c3ccc(F)c4ccoc34)n2)c1 (single isomer, unassigned) [Example 12, 5-Fluoro-4-(4-fluoro-1-benzofuran-7-yl)-N-{3-fluoro-5-[(S-methylsulfonimidoyl)-methyl]-phenyl}-pyrimidin-2-amine]"

# The remaining lines, values behind:
Compound,IC50 (CDK2/CycE) [µM],"IC50 (HeLa cells; Homo sapiens, 96 h) [µM]",IC50 (Caco-2 cells) [µM],IC50 (A2780 cells) [µM],IC50 (MOLM-13 cells) [µM],IC50 (HeLa cells) [µM],"IC50 (Caco-2 cells; Homo sapiens, Caco-2, 96 h) [µM]","IC50 (A2780 cells; Homo sapiens, A2780, 96 h) [µM]"
"CS(=N)(=O)Cc1cccc(Nc2ncc(F)c(-c3ccc(F)c4ccoc34)n2)c1 (single isomer, unassigned) [Example 5, 5-Fluoro-4-(4-fluoro-1-benzofuran-7-yl)-N-{3-[(S-methylsulfonimidoyl)-methyl]-phenyl}-pyrimidin-2-amine]",0.802,0.177,0.23,0.093,0.115,,,
"CS(=O)(Cc1cc(F)cc(Nc2ncc(F)c(-c3ccc(F)c4ccoc34)n2)c1)=NC#N (single isomer, unassigned) [Example 8, [(3-Fluoro-5-{[5-fluoro-4-(4-fluoro-1-benzofuran-7-yl)pyrimidin-2-yl]amino}benzyl)(methyl)-oxido-λ^6-sulfanylidene]cyanamide]",0.812,,,,0.034,0.089,0.043,0.037
"CS(=N)(=O)Cc1cc(F)cc(Nc2ncc(F)c(-c3ccc(F)c4ccoc34)n2)c1 (single isomer, unassigned) [Example 11, 5-Fluoro-4-(4-fluoro-1-benzofuran-7-yl)-N-{3-fluoro-5-[(S-methylsulfonimidoyl)-methyl]-phenyl}-pyrimidin-2-amine]",0.913,0.031,,,,,0.047,0.032
"CS(=O)(Cc1cccc(Nc2ncc(F)c(-c3ccc(F)c4ccoc34)n2)c1)=NC#N (racemic) [Example 1, (rac)-[(3-{[5-Fluoro-4-(4-fluoro-1-benzofuran-7-yl)pyrimidin-2-yl]amino}benzyl)(methyl)oxido-λ^6-sulfanylidene]cyanamide]",0.56,0.104,,,0.083,,0.11,0.046
"CS(=N)(=O)Cc1cc(F)cc(Nc2ncc(F)c(-c3ccc(F)c4ccoc34)n2)c1 (racemic) [Example 10, (rac)-5-Fluoro-4-(4-fluoro-1-benzofuran-7-yl)-N-{3-fluoro-5-[(S-methylsulfonimidoyl)-methyl]-phenyl}-pyrimidin-2-amine]",1.8,0.097,,,0.037,,0.104,0.037

# — patent US9884849B2, “Fluorinated benzofuranyl-pyrimidine derivatives containing a sulfoximine group” (Bayer Pharma Aktiengesellschaft, priority 2014, dated 2018)
